Measured values reported in patent US7220784B2, “Substituted stilbenes and their reactions” (priority 2000, dated 2007).
Read-outs that look alike come from different tables or passages of the source.

Legend:
[1] = system: P388 murine leukaemia cell line; experiment: Cytotoxicity/growth inhibition assay (MTT), P388; assay type: cell-based; details: MTT
Method in brief: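 Growth inhibition of P388 murine and K562 human leukaemia cells measured by MTT assay.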

A2780 = experiment: Cytotoxicity/growth inhibition assay (MTT), A2780; assay type: cell-based; details: read-out: A2780 IC50
Method in brief: (§1)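 MTT cytotoxicity/growth-inhibition assay in human cell lines including A2780, A2780/ADR, H460 and HUVEC.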

HUVEC = experiment: Growth inhibition studies using HUVEC; assay type: cell-based, human
Method in brief: as §1

K562 = experiment: IC50 of aliquots after ex situ irradiation in a photochemical reactor; details: Homo sapiens, K562, light or radiation study, read-out: IC50 (K562) (nM)

COc1ccc(C=Cc2cc(OC)c(OC)c(OC)c2)cc1F [Compound 97-64H]
IC50 [1]: 0.489 nM | IC50 (A2780): 3.66 nM | concentration necessary to inhibit the growth of HUVEC cells in vitro (HUVEC): 0.001 mM | IC50 (HUVEC; Homo sapiens, HUVEC): 2.4 nM

COc1ccc(/C=C/c2cc(OC)c(OC)c(OC)c2)cc1O [trans-CA-4, trans-combretastatin A-4]
IC50 (K562; 0 h): 4000 nM | IC50 (K562; 0.5 min): 310 nM | IC50 (K562; 1 min): 530 nM | IC50 (K562; 0.025 h): 50 nM | IC50 (K562; 2 min): 20 nM | IC50 (K562; 0.05 h): 12 nM | IC50 (K562; 4 min): 9 nM | IC50 (K562; 5 min): 10 nM | IC50 (K562; 0.125 h): 3 nM | IC50 (K562; 10 min): 6 nM | IC50 (K562; 12.5 min): 4 nM | IC50 (K562; 0.25 h): 1 nM | IC50 (K562; 17.5 min): 3 nM | IC50 (K562; 20 min): 2 nM
